Key:
[1] = test system: γ-globin mRNA; conditions: patients with globin disorders; cited from earlier work
[2] = test system: HSS-II region of the locus control region (LCR); assay: In vivo footprinting of HSS-II; design: species or system human
Method: (§1) Erythroid cell-rich fractions were prepared from patients' peripheral blood or bone marrow before and during treatment, and were in vivo methylated using DMS. Ligation-mediated polymerase chain reaction (LM-PCR) was performed (J. L. Mueller et al., Sci. 246:780-86, 1989). Briefly, 3-7 μg of DNA was suspended in 15 μl of solution A (40 mM Tris-HCl, pH 7.7, 50 mM NaCl) containing […] of primer. First-strand synthesis was performed by adding 7.5 μl of solution B (20 mM MgCl2, 20 mM DTT, 60 μM dNTP) and 1.5 μl of 1:4 diluted Sequenase version 2.0 (United States Biochemical; Cleveland, Ohio) with TE and incubating at 50° C. for 10 minutes. The reaction was quenched by heating at 68° C. for 10 minutes, adding 6 μl of 310 mM Tris-HCl, pH 7.7, and subsequently extracting with phenol/chloroform/isoamyl alcohol (25:24:1) and with ether. […] All of the footprints were analyzed two or more times to ensure reproducibility.
Several lines of evidence obtained from DNA transfection and transgenic experiments have corroborated the functional importance of HSS-II of the LCR in regulating β-like globin gene expression. […] In view of these observations, the patterns of in vivo footprints of HSS-II in erythroid cell preparations that were obtained from pre-treatment and post-treatment blood samples were analyzed. […]

[3] = test system: fetal globin production; conditions: cited from earlier work
[4] = test system: γ-globin gene promoter; assay: In vivo footprinting of the γ-globin promoter; design: species or system human
Method: To determine whether this increase was due to the transcriptional modulation of the γ-globin genes and, if so, to examine whether protein-DNA interactions of regulatory sequences for γ-globin gene expression have been changed, in vivo footprinting analysis of the γ-globin gene promoter and HSS-II region of the locus control region (LCR) were performed. […] Compared to conventional in vitro footprinting methods, which are ordinarily employed to analyze protein-DNA interactions for promoter regions and fail to disclose tissue-specific binding of nuclear proteins to cis-acting elements, in vivo footprinting technique is able to provide bona fide information on transcription factors binding to cis-acting elements that reflects in vivo situations.
as §1
In the γ-globin gene promoter, a DNA fragment extending up to -200 bp relative to the transcription start site is sufficient to direct efficient transcription of the γ-globin genes (K. T. McDonagh et al., J. Biol. Chem. 266:11965-74, 1991; M. J. Urich Blood 75:990-99, 1990). […] Erythroblasts from a patient with sickle cell anemia, before and after butyrate treatment were analyzed. […]

[5] = test system: hemoglobin polymerization; conditions: artificially deoxygenated blood; cited from earlier work
[6] = test system: proximal promoter of the gamma globin gene (K562 cells); assay: Gamma globin promoter-neomycin transfection (61 bp proximal promoter), G418-resistant colonies; assay type: cell-based, human
Method: Gamma globin promoter-neomycin transfection experiments were performed to determine if compounds act by inducing an increase in activity from the proximal promoter of the gamma globin gene. Constructs containing 61 bp of the proximal gamma globin promoter were linked to the reporter gene for neomycin phosphotransferase (NEO) and transfected into permissive K562 cells by electroporation. After 18 hours, transfected cells were passed at 10^3 cells per well into RPMI media containing G418 (neomycin), which kills all mammalian cells unless the gene for NEO is expressed. Phenoxyacetic acid and thiophenoxyacetic acid were added to some of the cells plated into the RPMI/G418 media at concentrations of 1 mM. Cultures were incubated for 8 weeks with media changes performed as needed. Colonies which survived and grew in the presence of G418 were scored and the number of such colonies was compared to those generated when the cells were plated into G418 media without the test compounds. […] There was a greater than 6-fold (>600%) increase in proportions of colonies surviving the presence of phenoxyacetic acid (6/24 wells) and a three-fold (300%) increase in survival in the presence of thiophenoxyacetic acid (3/24 wells).

[7] = Homo sapiens, K562, 1344 h, read-out: increase in proportions of colonies surviving

| Compound | levels of γ-globin mRNA [1] | footprints over HSS-II ([2]; erythroblasts of treated sickle cell patient (FIG. 15)) | region of new protection upstream of the GATA-1 binding sequence ([2]; treated patients (FIG. 15)) | stimulation of fetal globin production [3] | footprints in the γ-globin promoter ([4]; erythroblasts of a sickle cell anemia patient, post-treatment (FIG. 13)) | induction of transcription factors interacting with the γ-globin gene promoter ([4]; sickle cell anemia patient) | degree of protection on G residues in FRE-γ1 ([4]; β-thalassemia and sickle cell anemia patients (FIG. 14)) | inhibition of polymerization [5] | colonies surviving ([6]; 1 mM, 8 weeks in G418, none of 24 wells without compound) | activation at 1000 µM [6, 7] | fold induction at 1000 µM [6, 7] |
| --- | --- | --- | --- | --- | --- | --- | --- | --- | --- | --- | --- |
| CCCC(=O)O [AB, arginine butyrate] | increase in response to butyrate treatment | novel in vivo footprints that were not seen in a pre-treatment sample became apparent | about 40 bp | effective in stimulating fetal globin production | four major footprints in the fetal response elements | induces multiple transcription factors which interact with the γ-globin gene promoter, resulting in activation | consistently increased | – | – | – | – |
| O=C(O)COc1ccccc1 [PAA, Phenoxyacetic acid] | – | – | – | – | – | – | – | inhibit polymerization | 6/24 | > 600% | > 6 |
